Experiments:
PARP-1 [1] = target: T1, PARP-1 (Homo sapiens, UniProt P09874); assay: Competition labeling of PARP-1 by 2-ad-BAD; assay type: binding
T1 construct: Full length His6-PARP-1 and His6-SUMO-PARP-10 proteins we expressed and purified; His6 (N); made in house
Source text: FIG. 8. Densitometry analyses of FIG. 3A panels (A,B) comparing the inhibitory effect of nucleotides and (B) panels (C,D) comparing inhibitory effect of PARP inhibitors on PARP-1 and PARP-10 labelling by 2-ad-BAD. TAMRA in-gel fluorescence was normalized to Coomassie staining, except for PARP-1 NAD^+ treated samples where relative to control TAMRA signal is reported due to auto-PARylation induced molecular weight shift and therefore not detectable Coomassie signal at PARP-1 molecular weight of ˜110 kDa. Data are mean±SEM of 3 independent experiments.
Treatments. Recombinant PARP-1 (250 nM), PARP-10 (250 nM) or AK1 (500 nM; Novus Biologicals) were diluted in 100 mM NaCl, 50 mM HEPES [pH 7.4], 4 mM MgCl2, 0.2 mM TCEP. PARP-1 reactions also contained 10 μg/mL of activated calf thymus DNA (Sigma-Aldrich D4522), unless otherwise noted. In experiments reported in FIG. 2, the samples were treated with 0.1 μM 2-ad-BAD or ad-olaparib for 10 min. In competition experiments reported in FIG. 3 and Figure S3, samples were first treated with 150 μM of indicated nucleotides for 10 minute and then with 0.3 μM 2-ad-BAD for additional 10 min. All treatments occurred at RT. Samples were then kept in the dark or irradiated for 5 min in the RPR-100 Photochemical Reactor (Rayonet) equipped with 350 nm lamps at 4° C.
Click Chemistry. 25 μL of each sample was mixed with 5 μL of fatty acid free BSA and SDS to give a final Click reaction concentration of 1 mg/mL and 1%, respectively. Click reactions were started by adding 15 μL of PBS based 3× click reaction mix (final 1× concentrations shown): 100 μM Tris[(1-benzyl-1H-1,2,3triazol-4-yl)methyl]amine (TBTA, Click Chemistry Tools), 1 mM CuSO4, 40 μM tetramethylrhodamine (TAMRA)-azide (Click Chemistry Tools), 1 mM Tris(2-carboxyethyl)phosphine hydrochloride (TCEP, Thermo Fisher) and 5% tert-Butyl alcohol to each sample, and let to proceed for 1 h at RT while gently shaking. Reactions were stopped by adding 4× Laemmli sample buffer and boiling at 95° C. for 5 min.
In gel fluorescence and staining. Samples were loaded to 10 or 12% SDS-polyacrylamide gels and run until the dye front left the gel. In-gel fluorescence was detected with ChemiDoc XRS+ (Biorad) using Rhodamine filter and then the gels were stained with Coomassie blue or Silver using standard protocols.

PARP-1 [2] = target: T1, PARP-1; assay: In vitro PARP-1 auto-PARylation activity assay; assay type: biochemical; conditions: dose response; activated DNA, 50 μM NAD^+, anti-ADPr immunoblot
Method: FIG. 5. A clickable NAD^+ PAL probe (2-ad-BAD) inhibits PARP-1 and PARP-10 activity in concentration response. (FIG. 5A) 50 nM of recombinant His6-PARP-1 was incubated with 10 μg/mL activated DNA in 100 mM NaCl, 50 mM HEPES [pH 7.4], 4 mM MgCl2, 0.2 mM TCEP for 10 min, then treated with indicated competitor (BAD or the PARP-1 inhibitor NMS-P118) for additional 10 min. 50 μM NAD^+ was then added to initiate auto-PARylation of PARP-1. After 10 min, the reaction was quenched by addition of 4× Laemmli sample buffer and boiling at 95° C. for 5 min. Protein samples were separated by SDS-PAGE, transferred onto nitrocellulose and probed with indicated antibodies. (FIG. 5B) Experiments were performed essentially as in (5A) with the exception that damaged DNA was omitted and the PARP-10 inhibitor ITK6 was used instead of NMS-P118. (FIG. 5C) Densitometry analyses of (5A) and (5B) comparing inhibitory effect of BAD on PARP-1 and PARP-10 auto-ADP-ribosylation. Data are mean±SEM of 3 independent experiments. […]
Samples were run on 10% or 12% acrylamide gels for ˜1 h at 180 V in Mini-PROTEAN Tetra cell (Biorad). […] Band intensities we quantified with ImageJ.

PARP-1 [3] = target: T1, PARP-1; conditions: cited from earlier work

T1 sequence (P09874 whole entry): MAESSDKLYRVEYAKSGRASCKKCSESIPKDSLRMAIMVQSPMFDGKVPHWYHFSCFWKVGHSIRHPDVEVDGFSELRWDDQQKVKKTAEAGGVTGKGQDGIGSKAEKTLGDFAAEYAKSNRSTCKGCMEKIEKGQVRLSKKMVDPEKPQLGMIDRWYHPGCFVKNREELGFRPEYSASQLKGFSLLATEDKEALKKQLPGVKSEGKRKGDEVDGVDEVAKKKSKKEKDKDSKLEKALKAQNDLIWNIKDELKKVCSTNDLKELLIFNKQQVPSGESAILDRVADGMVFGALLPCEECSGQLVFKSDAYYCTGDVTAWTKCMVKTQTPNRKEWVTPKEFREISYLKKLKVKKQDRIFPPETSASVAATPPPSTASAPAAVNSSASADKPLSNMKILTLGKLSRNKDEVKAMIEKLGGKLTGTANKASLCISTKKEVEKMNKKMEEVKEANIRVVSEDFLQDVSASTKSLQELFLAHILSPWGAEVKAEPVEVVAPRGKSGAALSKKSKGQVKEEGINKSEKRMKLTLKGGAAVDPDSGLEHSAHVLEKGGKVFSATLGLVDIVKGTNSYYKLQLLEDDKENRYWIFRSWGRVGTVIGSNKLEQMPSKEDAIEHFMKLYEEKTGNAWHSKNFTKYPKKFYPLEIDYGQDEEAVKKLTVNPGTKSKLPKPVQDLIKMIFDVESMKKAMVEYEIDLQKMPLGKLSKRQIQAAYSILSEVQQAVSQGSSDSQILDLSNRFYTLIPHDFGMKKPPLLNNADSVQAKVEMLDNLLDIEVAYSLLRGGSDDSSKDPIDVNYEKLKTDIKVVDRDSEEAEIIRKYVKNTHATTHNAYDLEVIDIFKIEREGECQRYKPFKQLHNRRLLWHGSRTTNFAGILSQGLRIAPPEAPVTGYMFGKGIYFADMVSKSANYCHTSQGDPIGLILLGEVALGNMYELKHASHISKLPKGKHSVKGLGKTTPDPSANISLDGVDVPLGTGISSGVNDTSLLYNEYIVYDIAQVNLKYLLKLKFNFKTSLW

Structure (SMILES): NC(=O)c1cccc([C@@H]2O[C@H](COP(=O)(O)OP(=O)(O)OC[C@H]3O[C@@H](n4cnc5c(N)ncnc54)[C@H](O)[C@@H]3O)[C@@H](O)[C@H]2O)c1 [BAD, benzamide adenine dinucleotide]
- block of 2-ad-BAD labeling of PARP-1 by nucleotides (PARP-1 [1]; 150 μM nucleotide, 0.3 μM 2-ad-BAD): reduced
- dose-dependent block of 2-ad-BAD labeling of PARP-1 (PARP-1 [1]; competitor dose series): dose-dependently block the labeling of PARP-1
- inhibition of PARP-1 auto-PARylation (PARP-1 [2]): inhibited
- DNA dependence of binding to PARP-1 (PARP-1 [3]): DNA-dependent
- binding to PARP-1 and inhibition of its enzymatic activity (PARP-1 [3]): binds to PARP-1 and inhibits its enzymatic activity
